For one series, the system named is HCT116 cells. Description: HCT116 cell proliferation inhibition in vitro (3D CellTiter-Glo, 5 days). In kind it is cell-based. As to conditions: Homo sapiens, HCT-116, 120 h, read-out: HCT116/IC50. As to the method: McCoy's 5A medium, penicillin/streptomycin antibiotics purchased from Vicente, fetal bovine serum purchased from Biosera. 3D CellTiter-Glo (cell viability chemiluminescence detection reagent) reagent purchased from Promega. HCT116 cell line purchased from Nanjing Kebai Biotechnology Co., Ltd. Envision multi-label analyzer (PerkinElmer).
HCT116 cells were seeded in ultra-low attachment 96-well U-shaped plates, with 80 μL of cell suspension per well, containing 1000 HCT116 cells. The cell plate was cultured in a carbon dioxide incubator overnight.
The compound to be tested was serially diluted 5-fold to the 9th concentration using a pipette, that is, from 2 mM to 5.12 nM, in duplicates. 78 μL of culture medium was added to a middle plate, and then 2 μL of the serially diluted compound per well was transferred to the middle plate according to the corresponding position. After mixing well, 20 μL of the mixture was transferred to each well of the cell plate. The concentration range of the compound transferred to the cell plate was 10 μM to 0.0256 nM. The cell plate was placed in a carbon dioxide incubator and cultured for 5 days. Another cell plate was prepared, and its signal value was read on the day of drug addition as the […] for data analysis.
100 μL of cell viability chemiluminescent detection reagent was added to the cell plate and the mixture was incubated at room temperature for 10 minutes to stabilize the luminescent signal. The plate was read using a multi-label analyzer.
The raw data was converted into inhibition rate using the equation (Sample−Min)/(Max−Min)*100%, and the IC50 value may be obtained by four-parameter curve fitting (obtained in the “log(inhibitor) vs. response—Variable slope” mode in GraphPad Prism). The assay results of the inhibitory activity of the compounds of the present disclosure on HCT116 cell proliferation are shown in Table 1.

A short description of series [1]: Pharmacokinetic study in CD-1 male mice after oral and intravenous administration. It is filed as in vivo. The note with it: mouse, plasma; for AUC(0-t): read-out: Area under the plasma concentration-time curve AUC0-last. On the procedure: Pharmacokinetic study of the test compound in CD-1 male mice after oral and intravenous injection
The test compound was mixed with 10% dimethyl sulfoxide/30% PEG-400/60% aqueous solution, vortexed and sonicated to prepare a 0.20 mg/mL clear solution. The clear solution was filtered through a microporous filter for later use. Male CD-1 mice aged 7 to 10 weeks were selected and intravenously injected with a candidate compound solution and a reference compound VS-6766 solution. The reference compound and the test compound were respectively mixed with 20% sulfobutyl-β-cyclodextrin/80% aqueous solution, vortexed and sonicated to prepare a 0.20 mg/mL nearly transparent solution containing fine particles, and the candidate compound solution was orally administered. Whole blood was collected for a certain period of time, and the plasma was prepared. The drug concentration was analyzed by LC-MS/MS method, and the pharmacokinetic parameters were calculated using Phoenix WinNonlin software (Pharsight, USA).

The next series deals with NCI-H358. Description: Subcutaneous xenograft tumor model of human non-small cell lung cancer NCI-H358 in female BALB/c Nude mice. It is filed as in vivo, mouse. On the procedure: In vivo pharmacodynamic study of the test drug on the subcutaneous xenograft tumor model of human non-small cell lung cancer NCI-H358 in female BALB/c Nude mice
1. Cell culture: Human lung cancer cells NCI-H358 (ECACC-95111733) were revived and cultured in vitro in monolayers in RPMI 1640 medium with 10% fetal bovine serum and 1% double antibody. The cells were cultured in a 37° C. 5% CO2 cell incubator, and passaged twice a week. When the saturation of NCI-H358 cells reached 80%-90%, the cells were harvested, counted, and inoculated.
2. Animals: BALB/c Nude mice, female, 6-8 weeks old, weighing 18-22 g
3. Tumor inoculation: 5×10^6 NCI-H358 cells were inoculated on the right side of the neck of each mouse, with an inoculation volume of 0.1 mL. The cell suspension was a mixture of PBS and Matrigel (3:1). When the average tumor volume reached 150-200 mm^3, the mice were randomly divided into groups for drug administration. The drug administration scheme and the number of assay animals in each group are shown in Table 3 below: Assay animal grouping and administration regimen
The assay index is to examine whether the tumor growth is inhibited, delayed or cured. The tumor diameter was measured with a vernier caliper twice a week. The calculation formula of tumor volume is: V=0.5 a×b^2, where a and b represent the long diameter and short diameter of the tumor respectively.
The anti-tumor efficacy of the compound was evaluated by TGI (%) or relative tumor proliferation rate T/C (%). TGI (%) reflects the tumor growth inhibition rate. Calculation of TGI (%): TGI (%)=[1−(average tumor volume of a certain treatment group at a certain measurement−average tumor volume of the treatment group at grouping)/(average tumor volume of the vehicle control group at the same measurement−average tumor volume of the vehicle control group at grouping)]×100%. Relative tumor proliferation rate T/C (%): The calculation formula is as follows: T/C %=TRTV/CRTV×100% (TRTV: RTV of the treatment group; CRTV: RTV of the negative control group). The relative tumor volume (RTV) was calculated based on the results of tumor measurement. The calculation formula is RTV=VtV0, where V0 is the average tumor volume measured at grouping (i.e. PG-D0), Vt is the average tumor volume at a certain measurement, and TRTV and CRTV are taken from the same day.
TGI (%) reflects the tumor growth inhibition rate. TGI (%)=[(1−(average tumor volume at the end of a treatment group's administration−average tumor volume at the beginning of the treatment group's administration))/(average tumor volume at the end of the vehicle control group's treatment−average tumor volume at the beginning of the vehicle control group's treatment)]×100%.
(In general: A xenograft is tissue or cells of one species grown in another, often human tumour cells in immunodeficient mice.)

Where [2] appears, read: HCT116 cells, 5 days culture, cell viability chemiluminescence.
The mark [3] stands for this setting: 0.3 mg/kg p.o. QD, day 28 (discontinued D10-D17 and D23-D25).
Setting [4] is: 1.5 mg/kg p.o. QD, day 28 (discontinued D3-D13, changed to 0.05 after D14).

The structures appear in SMILES notation. Read-outs that look alike come from different tables or passages of the source.

Turning to `CNS(=O)(=O)Nc1cccc(Cc2c(C)c3c(F)cc(Oc4ncccn4)cc3oc2=O)c1F` [Compound 1], in the series on HCT116 cells (setting [2]), the IC50 stood at 17 nM.

`CNS(=O)(=O)Nc1cccc(Cc2c(C)c3c(F)cc(OC(=O)N(C)C)cc3oc2=O)c1F` [Compound 2]: the IC50 with HCT116 cells was determined as 7.2 nM.

The Tmax is the time at which the peak concentration occurs. A word on the bioavailability: it is the share of a dose that reaches the circulation, judged against a reference dose that is usually intravenous. The T/C is the result in the treated group divided by that in the control group, in per cent. On to `CNS(=O)(=O)Nc1nccc(Cc2c(C)c3c(F)cc(Oc4ncccn4)cc3oc2=O)c1F` [Compound 3], for which the IC50 in the series on HCT116 cells (setting [2]) turned out to be 28.7 nM. For the same compound, in series [1] (intravenous injection, 1.04 mg/kg, read-out: Apparent volume of distribution Vdss), the Vd turned out to be 0.35 L/kg. The AUC(0-t) stood at 46.8 µM·h in series [1] (intravenous injection, 1.04 mg/kg) and 85.8 µM·h in series [1] (oral administration, 2.16 mg/kg). In addition, the clearance in series [1] (intravenous injection, 1.04 mg/kg, read-out: Clearance CL) stood at 0.69 mL/min/kg. Moreover, in series [1] (intravenous injection, 1.04 mg/kg, read-out: Half-life T1/2 (converted)), the half-life is 5.73 h. Also, in series [1] (oral administration, 2.16 mg/kg, read-out: Peak concentration Cmax), the Cmax was found to be 10.9 µM. Besides, the Tmax in series [1] (oral administration, 2.16 mg/kg, read-out: Time to peak Tmax) came to 0.63 h. In addition, the bioavailability in series [1] (oral administration, 2.16 mg/kg, read-out: Bioavailability F) was 89.8%. Further, the Mean tumor volume with NCI-H358 (setting [3]) is on record as 71 mm^3; in the series on NCI-H358 (setting [4]), 67 mm^3. For the same compound, the results for the T/C in the series with NCI-H358 (setting [3]) and with NCI-H358 (setting [4]) were 7.90% and 7.45%, respectively. The TGI is 111.4% with NCI-H358 (setting [3]) and 111.9% in the series on NCI-H358 (setting [4]).

The values are drawn from patent publication US20250154120A1, “COUMARIN COMPOUNDS AND USES THEREOF” (priority 2022, published 2025).
